Values joined by “and” are separate entries in the source; they are usually repeats but may differ in a detail not shown here. Equal values may be shown once.
Test system: NCI-H211 complex spheroid viability
Test: Anticancer human tumor NCI-H211 cell line growth inhibition [LSD1];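 further: luminescent viability read after seven days of drug exposure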
Details: for viability, T/C: stronger effect = lower value; active means viability on the fitted dose curve at most 10% of control; inactive means the rest
From the text: Multicellular complex tumor spheroid response to LSD1 Inhibitor Iadademstat in combination with a variety of drugs and investigational agents in selected tumor cell lines
The current study was undertaken to assess response to LSD1 inhibitors in combination with standard-of-care drugs and investigational agents in solid tumor complex spheroid models as well as in the K-562 leukemia. Complex spheroids include a stromal component modeled by human endothelial cells (HUVEC) and fibroblasts modeled by human mesenchymal stem cells (MSCs). The concentration ranges selected for each drug and investigational agent were based upon clinically achievable concentrations if the clinical Cmax of the agent was known.
Compounds. The drugs and investigational agents used in this study are listed on Table 1. All of the agents used, including staurosporine (NSC755774) and gemcitabine (NSC613327), were obtained from the Developmental Therapeutics Program, NCI. FDA-approved anticancer drugs are available from the NCI at http://dtp.nci.nih.gov/branches/dscb/oncology_drugset_explanation.html. Drugs and investigational agents were >95% pure by proton nuclear magnetic resonance (NMR) and liquid chromatography/mass spectrometry (LC/MS). Stock solutions were prepared at 400x in DMSO, stored at -70 degrees C, and diluted in fresh medium prior to their use. The final concentration of DMSO in cell culture wells never exceeded 0.25% (v/v). The FDA-approved anticancer drug set is available from the Developmental Therapeutics Program at https://dtp.cancer.gov/organization/dscb/obtaining/available_plates.htm. All drugs and investigational agents were tested over a range starting from a high concentration at or near the clinical Cmax and decreasing in half-log increments. If the clinical Cmax for an agent had not been determined, the highest concentration tested was 10 microM.
Cell Lines. The patient-derived cancer cell (PDC) lines: 292921-168-R-J2-PDC, K24384-001-R-PDC, and 521955-158-R2-J5-PDC pancreatic carcinomas, 556581-035-R-J1 ovarian carcinoma, 324938-238-R-J1-PDC, 855422-203-R-J1-PDC and 883617-216-R-J1-PDC urothelial bladder carcinomas, 743489-274-T-PDC renal cell carcinoma, 138582-R-J1 Merkel cell tumor, K60290-347-R-J1 and K57222-313-R-J1-PDC glioblastomas, 653999-131-R-J2-PDC, LG0703-F948-PDC, and 349418-098-R-PDC non-small cell lung carcinomas, 885512-296-R-J2-PDC, 171881-019-R-J1-PDC breast carcinomas and 186277-243-T-J2-PDC and 233499-124-R-J2-PDC colon carcinomas were obtained from the NCI Patient-Derived Models Repository (PDMR, https://pdmr.cancer.gov). The established cell lines NCI/ADR-RES (RRID:CVCL_14520 and OVCAR-5 (RRID:CVCL_1628) ovarian carcinomas, 786-O (RRID:CVCL_1051) and A498 (RRID:CVCL_A498) renal cell carcinoma, NCI-H211 (ATCC, cat. CRL-5824; RRID:CVCL_1529), NCI-H196 (ATCC, cat. CRL-5823, RRID:CVCL_1509), SW 1271 (ATCC, cat. CRL-2177, RRID:CVCL_1716) and NCI-H1876 (ATCC, cat. CRL-5902, RRID:CVCL_1503) small cell lung carcinomas, MDA-MB-231 (RRID:CVCL_0062) and MDA-MB-468 (RRID:CVCL_0419)breast carcinomas (10-12). Pooled donor human umbilical vein endothelial cells (HUVEC, Lonza, cat. CC-2519) and human mesenchymal stem cells (hMSC, Lonza, cat. PT-2501) were purchased from Lonza (Walkersville, MD).
Cell Culture. All cells were maintained in an incubator at 37 degrees C and 5% CO2 with 95% humidity. The PDC lines were cultured according to standard operating procedures established by the NCI PDMR (https://pdmr.cancer.gov). Briefly all PDCs were thawed and cultured in Matrigel-coated flasks prepared with a working solution of 1X Ham's F-12 nutrient mix, without supplementation (Invitrogen, Waltham, MA, cat. 11765054), 100 U/mL penicillin-streptomycin (Invitrogen, cat. 15140122), and 2.5% Matrigel (Corning Inc., Corning, NY, cat. 354248) for the first three passages. […]

O=C(c1cc(Cc2n[nH]c(=O)c3ccccc23)ccc1F)N1CCN(C(=O)C2CC2)CC1 + NC1CC1c1ccc(-c2cccc(O)c2)cc1
< 31.6 nM: IC50 (curve of first compound, second compound 0.1 µM) | IC50 (curve of first compound, second compound 0.316 µM) | IC50 (curve of first compound, second compound 1 µM) | IC50 (curve of first compound, second compound 3.16 µM) | IC50 (curve of first compound, second compound 10 µM)
active: viability, T/C (second compound 0.1 µM, first compound 0.316 µM) 7.94% | viability, T/C (second compound 0.1 µM, first compound 1 µM) 5.7% | viability, T/C (second compound 0.1 µM, first compound 3.16 µM) 6.16% | viability, T/C (second compound 0.1 µM, first compound 10 µM) 5.03% | viability, T/C (second compound 0.316 µM, first compound 0.316 µM) 8.13% | viability, T/C (second compound 0.316 µM, first compound 1 µM) 5.19% | viability, T/C (second compound 0.316 µM, first compound 3.16 µM) 4.85% | viability, T/C (second compound 0.316 µM, first compound 10 µM) 5.84% | viability, T/C (second compound 1 µM, first compound 0.316 µM) 7.69% | viability, T/C (second compound 1 µM, first compound 1 µM) 5.3% | viability, T/C (second compound 1 µM, first compound 3.16 µM) 6.41% | viability, T/C (second compound 1 µM, first compound 10 µM) 5.15% | viability, T/C (second compound 3.16 µM, first compound 0.316 µM) 8.34% | viability, T/C (second compound 3.16 µM, first compound 1 µM) 5.75% | viability, T/C (second compound 3.16 µM, first compound 3.16 µM) 6.96% | viability, T/C (second compound 3.16 µM, first compound 10 µM) 5.88% | viability, T/C (second compound 10 µM, first compound 0.316 µM) 8.43% | viability, T/C (second compound 10 µM, first compound 1 µM) 5.92% | viability, T/C (second compound 10 µM, first compound 3.16 µM) 6.26% | viability, T/C (second compound 10 µM, first compound 10 µM) 6.28%
inactive: viability, T/C (second compound 0.1 µM, first compound 0.0316 µM) 47.4% | viability, T/C (second compound 0.1 µM, first compound 0.1 µM) 25% | viability, T/C (second compound 0.316 µM, first compound 0.0316 µM) 48.9% | viability, T/C (second compound 0.316 µM, first compound 0.1 µM) 24.5% | viability, T/C (second compound 1 µM, first compound 0.0316 µM) 44% | viability, T/C (second compound 1 µM, first compound 0.1 µM) 22% | viability, T/C (second compound 3.16 µM, first compound 0.0316 µM) 49.2% | viability, T/C (second compound 3.16 µM, first compound 0.1 µM) 19.5% | viability, T/C (second compound 10 µM, first compound 0.0316 µM) 34.4% | viability, T/C (second compound 10 µM, first compound 0.1 µM) 17.2%

CC(C)CC(NC(=O)CNC(=O)c1cc(Cl)ccc1Cl)B1OC(=O)CC(CC(=O)O)(C(=O)O)O1 (centres undefined)
inactive: viability, T/C (compound 0.000316 µM) 125% and 105% | viability, T/C (compound 0.001 µM) 114% and 102% | viability, T/C (compound 0.00316 µM) 112% and 115% | viability, T/C (compound 0.01 µM) 65.5% and 41.5%
16% and 14%: viability, T/C (compound 0.0316 µM)
active: viability, T/C (compound 0.1 µM) 3.55% and 4.35%
14.4 nM and 8.63 nM: IC50 (curve of compound)

COc1cc(C2c3cc4c(cc3C(OC3OC5COC(C)OC5C(O)C3O)C3COC(=O)C23)OCO4)cc(OC)c1O (centres undefined)
inactive: viability, T/C (compound 0.00949 µM) 71.3% and 48.3% | viability, T/C (compound 0.03 µM) 15.2% and 13.1%
14.7 nM and < 9.49 nM: IC50 (curve of compound)
active: viability, T/C (compound 0.0949 µM) 2.55% and 6.21% | viability, T/C (compound 0.3 µM) 2.41% and 5.04% | viability, T/C (compound 0.949 µM) 2.11% and 6.22% | viability, T/C (compound 3 µM) 2.35% and 5.42%
